Results published in ChEMBL document CHEMBL1201862, “PubChem BioAssay data set” (2004).
Active and inactive are the calls of the source.

What was measured:
[1] = target: Heat shock protein HSP 90-alpha (Homo sapiens, UniProt P07900); type: functional, organism-based
[2] = target: Induced myeloid leukemia cell differentiation protein Mcl-1 (Homo sapiens, UniProt Q07820); type: functional
[3] = NIH3T3 cell viability loss – ATP luminescence, mouse fibroblasts, counter-screen, dose response (AID 2010); type: functional, cell-based;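 further: cells exposed to compound for about 90 hours before reading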
[4] = Trypanosoma cruzi growth suppression in host cells – NIH3T3 host cells, beta-gal luminescence, confirmation (AID 2044); type: functional, cell-based;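 further: intracellular parasites grown in NIH/3T3 mouse fibroblasts as host cells; luminescent beta-galactosidase reporter signal from transgenic T. cruzi replicating inside host cells; inhibitors lower the luminescence signal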
[5] = cells
[6] = target: T1, Protein Tat (Human immunodeficiency virus type 1 group M subtype B (isolate HXB2)(HIV-1), UniProt P04608); type: functional;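 further: tat binding to TAR RNA read out by fluorescence polarization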
T1 sequence (P04608 whole entry): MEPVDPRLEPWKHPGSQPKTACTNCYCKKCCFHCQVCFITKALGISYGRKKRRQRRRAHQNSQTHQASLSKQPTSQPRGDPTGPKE

[7] = tested on: H4; test: Luminescence Cell-Based Dose Response HTS to Identify Activators of 5'UTR Stem-Loop Driven Prion Protein mRNA Translation in H4 Neuroglioblastoma Cells. [Related pubchem assays: 1829 (Project Summary), 1814 (Primary HTS)]; type: functional; conditions: Homo sapiens
[8] = target: T2, Voltage-gated N-type calcium channel alpha-1B subunit/Amyloid beta A4 precursor protein-binding family A member 1 (Homo sapiens, UniProt Q00975+Q02410); type: protein assay
[9] = Luminescence Cell-Based Dose Response HTS to Identify Activators of Luciferase Translation or Activity in H4 […] Cells. [Related pubchem assays: 1829 (Project Summary), 1814 (Primary HTS)]; type: functional
[10] = target: DNA dC->dU-editing enzyme APOBEC-3A (Homo sapiens, UniProt P31941); test: A3A deaminase inhibition for selectivity – biochemical, dose response (AID 504722); type: functional
[11] = target: DNA dC->dU-editing enzyme APOBEC-3G (Homo sapiens, UniProt Q9HC16); test: Dose Response confirmation of small molecule APOBEC3G DNA Deaminase Inhibitors via a fluorescence-based single-stranded DNA deaminase assay. [Related pubchem assays (depositor defined):AID493012, AID493028]; type: functional
[12] = HIV-1 Vif–A3G interaction blockers – biochemical, TR-FRET, GST-Vif 1-94, biotin-A3G peptide, dose response retest, primary screen (AID 1117319); type: functional;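 further: TR-FRET signal of purified GST-Vif binding a biotinylated A3G peptide; inhibitors lower the FRET signal by blocking Vif and A3G binding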
[13] = Luminescence Cell-Based Dose Confirmation HTS to Identify Activators of 5'UTR Stem-Loop Driven Alpha-Synuclein mRNA Translation in H4 Neuroglioblastoma Cells. [Related pubchem assays: 1829 (Project Summary), 1814 (Primary HTS)]; type: functional
[14] = target: T2, Voltage-gated N-type calcium channel alpha-1B subunit/Amyloid beta A4 precursor protein-binding family A member 1; type: protein assay; remark: listed apart in the source
[15] = target: Large T antigen (Simian virus 40, UniProt P03070); type: functional, Betapolyomavirus macacae;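 further: Confirmatory-stage PubChem screen for compounds that inhibit SV40 T antigen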
[16] = M. tuberculosis H37Rv growth inhibitors, H37Rv strain (AID 1626); type: functional
[17] = target: Troponin, cardiac muscle (Homo sapiens, UniProt P19429+P45379+P63316); test: Fluorescence-based biochemical high throughput dose response assay for activators of the calcium sensitivity of cardiac Regulated Thin Filaments (RTF). [Related pubchem assays (depositor defined):AID493008, AID493018, AID504382, AID504383]; type: protein-complex assay
[18] = target: T3, DNA repair protein RAD52 homolog (Homo sapiens, UniProt P43351); type: functional, biochemical
T3 sequence (P43351 whole entry): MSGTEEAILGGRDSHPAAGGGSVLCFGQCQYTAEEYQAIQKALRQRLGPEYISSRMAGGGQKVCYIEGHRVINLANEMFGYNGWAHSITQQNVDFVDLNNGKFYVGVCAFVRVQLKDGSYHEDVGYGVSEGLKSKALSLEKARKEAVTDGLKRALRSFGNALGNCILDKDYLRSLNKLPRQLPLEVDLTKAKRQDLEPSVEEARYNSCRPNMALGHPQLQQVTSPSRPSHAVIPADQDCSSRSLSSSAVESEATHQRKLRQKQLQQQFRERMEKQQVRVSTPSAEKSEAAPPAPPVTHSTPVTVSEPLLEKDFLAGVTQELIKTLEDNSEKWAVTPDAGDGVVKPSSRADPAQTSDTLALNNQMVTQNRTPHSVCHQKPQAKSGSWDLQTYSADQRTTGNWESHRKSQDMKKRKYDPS

[19] = target: Melanin-concentrating hormone receptor 1 (Homo sapiens, UniProt Q99705); test: Late-stage fluorescence-based counterscreen for antagonists of the G-protein coupled receptor 7 (GPR7): cell-based dose response assay to identify antagonists of the melanin-concentrating hormone receptor 1 (MCHR1). [Related pubchem assays (depositor defined):AID1861, AID1880, AID1952, AID2148, AID2251, AID2257, AID485339]; type: functional;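 further: stimulated with 30 nM MCH peptide agonist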
Sequence of Melanin-concentrating hormone receptor 1 (Q99705 whole entry): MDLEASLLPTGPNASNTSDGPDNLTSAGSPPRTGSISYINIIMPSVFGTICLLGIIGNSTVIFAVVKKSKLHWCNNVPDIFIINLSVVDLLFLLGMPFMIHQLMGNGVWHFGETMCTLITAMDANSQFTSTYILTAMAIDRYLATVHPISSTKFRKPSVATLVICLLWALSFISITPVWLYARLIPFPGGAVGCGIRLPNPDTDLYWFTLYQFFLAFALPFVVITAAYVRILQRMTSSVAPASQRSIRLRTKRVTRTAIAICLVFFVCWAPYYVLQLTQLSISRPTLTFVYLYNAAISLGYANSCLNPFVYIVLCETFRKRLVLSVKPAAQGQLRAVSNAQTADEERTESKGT

T2 sequence (Q00975 whole entry): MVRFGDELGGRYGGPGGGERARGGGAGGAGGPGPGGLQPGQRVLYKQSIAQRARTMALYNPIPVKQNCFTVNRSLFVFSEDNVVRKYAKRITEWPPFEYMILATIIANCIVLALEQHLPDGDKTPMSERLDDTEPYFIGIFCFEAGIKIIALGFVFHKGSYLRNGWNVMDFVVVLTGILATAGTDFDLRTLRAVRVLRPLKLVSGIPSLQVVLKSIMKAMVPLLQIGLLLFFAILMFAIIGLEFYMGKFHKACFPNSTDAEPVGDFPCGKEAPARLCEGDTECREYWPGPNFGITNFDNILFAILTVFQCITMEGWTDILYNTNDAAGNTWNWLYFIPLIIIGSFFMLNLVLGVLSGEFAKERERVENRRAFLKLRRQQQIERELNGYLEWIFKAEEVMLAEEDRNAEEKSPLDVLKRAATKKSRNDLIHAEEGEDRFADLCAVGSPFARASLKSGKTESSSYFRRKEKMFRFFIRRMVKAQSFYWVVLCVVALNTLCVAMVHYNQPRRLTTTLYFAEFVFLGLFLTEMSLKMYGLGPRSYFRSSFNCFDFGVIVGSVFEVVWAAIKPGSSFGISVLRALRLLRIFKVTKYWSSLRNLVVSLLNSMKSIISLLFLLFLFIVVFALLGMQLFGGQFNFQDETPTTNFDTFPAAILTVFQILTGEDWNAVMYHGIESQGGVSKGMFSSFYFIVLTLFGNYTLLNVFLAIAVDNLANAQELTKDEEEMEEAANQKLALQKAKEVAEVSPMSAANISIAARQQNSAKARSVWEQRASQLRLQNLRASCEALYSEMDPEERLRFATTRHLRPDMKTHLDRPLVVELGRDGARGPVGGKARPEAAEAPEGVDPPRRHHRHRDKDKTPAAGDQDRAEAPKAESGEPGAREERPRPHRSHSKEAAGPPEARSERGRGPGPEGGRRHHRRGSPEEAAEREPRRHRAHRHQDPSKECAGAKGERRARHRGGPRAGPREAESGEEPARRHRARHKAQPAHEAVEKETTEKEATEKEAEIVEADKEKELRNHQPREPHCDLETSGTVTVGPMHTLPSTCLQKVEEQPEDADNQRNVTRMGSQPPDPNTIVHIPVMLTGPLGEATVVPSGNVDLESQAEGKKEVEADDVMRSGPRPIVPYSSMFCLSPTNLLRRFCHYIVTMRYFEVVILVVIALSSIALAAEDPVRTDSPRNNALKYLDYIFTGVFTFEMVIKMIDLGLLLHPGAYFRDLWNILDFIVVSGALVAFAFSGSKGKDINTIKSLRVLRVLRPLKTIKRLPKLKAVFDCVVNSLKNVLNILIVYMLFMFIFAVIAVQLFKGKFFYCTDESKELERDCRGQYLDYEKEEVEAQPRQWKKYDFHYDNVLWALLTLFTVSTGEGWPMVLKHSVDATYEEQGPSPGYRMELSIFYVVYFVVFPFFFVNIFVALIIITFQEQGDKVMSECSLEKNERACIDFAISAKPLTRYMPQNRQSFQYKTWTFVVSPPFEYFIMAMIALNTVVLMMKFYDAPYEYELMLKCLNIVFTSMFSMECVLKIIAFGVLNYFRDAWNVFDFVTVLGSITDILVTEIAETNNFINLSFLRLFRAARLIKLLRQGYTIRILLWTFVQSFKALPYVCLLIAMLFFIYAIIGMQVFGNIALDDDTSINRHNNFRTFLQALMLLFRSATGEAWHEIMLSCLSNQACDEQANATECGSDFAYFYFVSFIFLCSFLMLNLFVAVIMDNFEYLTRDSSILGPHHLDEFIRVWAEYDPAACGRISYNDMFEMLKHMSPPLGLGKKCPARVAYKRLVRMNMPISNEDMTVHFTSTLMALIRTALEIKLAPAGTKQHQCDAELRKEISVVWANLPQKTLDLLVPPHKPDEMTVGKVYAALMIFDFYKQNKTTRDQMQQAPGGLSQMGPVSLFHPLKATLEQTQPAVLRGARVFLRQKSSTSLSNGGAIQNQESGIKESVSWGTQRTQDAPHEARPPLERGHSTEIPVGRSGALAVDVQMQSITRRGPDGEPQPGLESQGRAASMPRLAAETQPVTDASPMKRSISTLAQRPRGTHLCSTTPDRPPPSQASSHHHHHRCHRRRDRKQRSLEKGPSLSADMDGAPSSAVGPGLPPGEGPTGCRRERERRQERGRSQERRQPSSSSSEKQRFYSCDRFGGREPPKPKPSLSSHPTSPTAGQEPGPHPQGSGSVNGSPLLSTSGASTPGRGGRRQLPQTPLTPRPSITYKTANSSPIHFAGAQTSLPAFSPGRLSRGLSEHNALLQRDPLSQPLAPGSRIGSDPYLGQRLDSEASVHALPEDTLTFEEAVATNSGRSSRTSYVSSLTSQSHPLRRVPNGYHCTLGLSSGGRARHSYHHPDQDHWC
T2 sequence (Q02410 whole entry): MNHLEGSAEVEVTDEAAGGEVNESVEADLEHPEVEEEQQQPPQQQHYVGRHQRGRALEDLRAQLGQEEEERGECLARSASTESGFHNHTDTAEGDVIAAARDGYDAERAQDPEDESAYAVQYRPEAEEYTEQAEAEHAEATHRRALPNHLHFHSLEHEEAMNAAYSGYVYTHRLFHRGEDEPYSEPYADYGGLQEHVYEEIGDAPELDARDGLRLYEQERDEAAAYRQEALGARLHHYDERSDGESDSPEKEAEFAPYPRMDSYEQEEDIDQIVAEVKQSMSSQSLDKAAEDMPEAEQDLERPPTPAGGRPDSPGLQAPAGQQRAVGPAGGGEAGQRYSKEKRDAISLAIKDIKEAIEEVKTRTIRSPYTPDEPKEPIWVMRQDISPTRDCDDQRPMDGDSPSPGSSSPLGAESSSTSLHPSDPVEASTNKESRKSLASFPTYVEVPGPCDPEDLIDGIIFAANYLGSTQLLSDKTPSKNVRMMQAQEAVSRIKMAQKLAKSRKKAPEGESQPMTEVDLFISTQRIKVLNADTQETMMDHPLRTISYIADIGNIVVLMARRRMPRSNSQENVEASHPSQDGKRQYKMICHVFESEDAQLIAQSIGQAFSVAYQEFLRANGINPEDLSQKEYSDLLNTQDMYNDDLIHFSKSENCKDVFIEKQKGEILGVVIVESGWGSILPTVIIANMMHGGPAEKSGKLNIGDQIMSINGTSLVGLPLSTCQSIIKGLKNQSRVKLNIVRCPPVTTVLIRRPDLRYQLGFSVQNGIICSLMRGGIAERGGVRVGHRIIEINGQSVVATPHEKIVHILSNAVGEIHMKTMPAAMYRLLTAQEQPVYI
Sequence of DNA dC->dU-editing enzyme APOBEC-3G (Q9HC16 whole entry): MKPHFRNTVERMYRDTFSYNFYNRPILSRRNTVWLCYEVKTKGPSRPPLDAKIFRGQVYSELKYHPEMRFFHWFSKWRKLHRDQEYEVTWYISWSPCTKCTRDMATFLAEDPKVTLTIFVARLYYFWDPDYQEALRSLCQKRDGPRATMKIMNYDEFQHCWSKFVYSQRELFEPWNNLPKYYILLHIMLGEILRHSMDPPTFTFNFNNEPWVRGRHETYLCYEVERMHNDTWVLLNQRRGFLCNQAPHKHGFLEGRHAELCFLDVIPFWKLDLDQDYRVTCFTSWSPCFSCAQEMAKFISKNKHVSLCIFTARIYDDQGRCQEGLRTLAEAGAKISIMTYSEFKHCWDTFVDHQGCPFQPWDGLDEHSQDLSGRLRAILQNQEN
Sequence of Induced myeloid leukemia cell differentiation protein Mcl-1 (Q07820 whole entry): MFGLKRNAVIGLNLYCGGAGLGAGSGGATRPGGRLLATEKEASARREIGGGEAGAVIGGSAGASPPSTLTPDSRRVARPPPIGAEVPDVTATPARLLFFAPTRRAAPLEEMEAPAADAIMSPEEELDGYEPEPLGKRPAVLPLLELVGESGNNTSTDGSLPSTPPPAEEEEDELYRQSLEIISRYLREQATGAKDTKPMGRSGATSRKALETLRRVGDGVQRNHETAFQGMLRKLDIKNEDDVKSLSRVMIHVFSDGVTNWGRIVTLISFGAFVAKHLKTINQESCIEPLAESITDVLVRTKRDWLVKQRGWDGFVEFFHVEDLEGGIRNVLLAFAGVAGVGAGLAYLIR
Sequence of Large T antigen (P03070 whole entry): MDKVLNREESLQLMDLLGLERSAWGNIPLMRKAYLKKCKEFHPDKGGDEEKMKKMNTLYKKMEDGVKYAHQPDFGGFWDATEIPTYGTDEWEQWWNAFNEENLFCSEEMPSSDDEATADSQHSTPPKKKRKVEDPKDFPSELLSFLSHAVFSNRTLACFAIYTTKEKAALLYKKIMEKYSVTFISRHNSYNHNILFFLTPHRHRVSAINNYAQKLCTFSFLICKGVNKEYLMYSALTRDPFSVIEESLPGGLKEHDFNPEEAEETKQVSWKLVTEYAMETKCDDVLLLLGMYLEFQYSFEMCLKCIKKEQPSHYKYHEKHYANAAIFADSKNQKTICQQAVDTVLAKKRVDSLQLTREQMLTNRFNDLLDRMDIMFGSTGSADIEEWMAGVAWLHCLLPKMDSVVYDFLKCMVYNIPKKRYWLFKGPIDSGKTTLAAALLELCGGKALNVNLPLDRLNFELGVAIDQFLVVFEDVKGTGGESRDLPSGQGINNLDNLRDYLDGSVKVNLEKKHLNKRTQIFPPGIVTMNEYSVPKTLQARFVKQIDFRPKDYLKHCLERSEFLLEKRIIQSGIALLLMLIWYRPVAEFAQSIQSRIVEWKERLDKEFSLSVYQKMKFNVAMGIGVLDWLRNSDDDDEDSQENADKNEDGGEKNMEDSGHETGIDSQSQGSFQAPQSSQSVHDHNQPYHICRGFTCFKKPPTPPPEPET

Cc1c(Cc2ccccc2)c(NCCN(C)C)n2c(nc3ccccc32)c1C#N
AC50 [1]: 2.37 µM (active)
IC50 [2]: 3.29 µM (active)
EC50 [3]: 34.1 µM (active)
EC50 [4]: < 0.1 µM (active)
EC50 [5]: 0.015 µM (active)

Cc1ccc(N2CSC3=C(C#N)C(c4cccs4)CC(=O)N3C2)cc1 (centres undefined)
IC50 [6]: > 100 µM (active)
EC50 [7]: 7.71 µM (active)
IC50 [8]: 3.74 µM (active)
EC50 [9]: 17 µM (active)
IC50 [10]: > 100 µM (inactive)
IC50 [11]: 5.19 µM (active)
IC50 [12]: > 100 µM (active)
EC50 [13]: 13.2 µM (active)
IC50 [14]: > 50 µM (inactive)
IC50 [15]: > 100 µM (active)

CN1C(=O)C(=CNc2ccc3c(c2)CCC3)C(=O)N(C)C1=O
IC50 [16]: > 100 µM (active)

CC(C(=O)c1ccc(Br)cc1)[n+]1cccc2ccccc21 (centres undefined)
EC50 [17]: 15.2 µM (inactive)

Cc1ccc2nc(N(CCCN(C)C)C(=O)CN3C(=O)c4ccccc4C3=O)sc2c1
AC50 [18]: 21.7 µM (active)
EC50 [3]: > 60 µM (not active)
EC50 [4]: < 0.1 µM (active)
EC50 [5]: 0.055 µM (active)

CCC(C)c1ccc(-n2ncc(Cl)c(Oc3ccc(OC)cc3)c2=O)cc1 (centres undefined)
IC50 [19]: 2.2 µM (active)

Cc1ccc(-n2ncc(Cl)c(Oc3ccc(CO)cc3)c2=O)cc1
IC50 [19]: > 20 µM (inactive)

CC1(C)CC(=O)C(/C=N/c2ccc3c(c2)OCO3)=C(O)C1
IC50 [16]: > 100 µM (active)
